Laboratory results from patent US10758511B2, “Stable analogs of CYP450 lipid metabolites and inhibitors of soluble epoxide hydrolase” (Massachusetts Eye and Ear Infirmary, priority 2015, dated 2020).
Values after ≈ are worked out from the molar mass of the structure shown. Marks after values point to notes of the source that are not given here. Values belong to the molecule of their own block, whether it stands above or below them.

Columns and labels:
[1] = Formulations of selected inhibitors of sEH (mg/mL); format: physicochemical
[2] = test system: C57BL/6 mice; test: Laser-induced CNV model (flat-mount, SD-OCT, fluorescein angiography); format: in vivo, mouse; details: for CNV size or severity compared to base line controls: EETs once a day after laser photocoagulation
Text: J Med Chem 54(12):4109-4118).

[3] = test system: peripheral blood leukocytes (PBLs); test: Autoperfused microflow chamber assay, leukocyte rolling velocity; format: in vivo, mouse; details: chamber coated with ICAM-1 and P-selectin, 50 μg/kg/day i.p., day 3 after CNV induction
Protocol: A combination of intercellular adhesion molecule 1 (ICAM-1) and P-selectin (R&D Systems), each at a concentration of 5 μg/mL, was used to coat translucent microchambers (0.4×0.04×50 mm, VitroCom) overnight at 4° C. Biocompatible polyester tubing (PE10; Becton Dickinson) was attached to both ends of each microchamber, and the apparatus was subsequently incubated for 1 hour with 0.1% BSA (Sigma-Aldrich) in order to prevent nonspecific leukocyte interaction with the inner surface of the apparatus. The left jugular vein and right carotid artery in an anesthetized mouse were surgically connected to the free ends of both tubes, thus allowing blood to flow from the right carotid artery and into the microchamber (via the inlet tube), and then into the left jugular vein (via the outlet tube) for recirculation. Blood flow rate through the microchamber was controlled via a screw valve on the inlet tube that could change the tube diameter. For continuous blood pressure measurements, three-way connectors were used to embed microtransducers (Harvard Apparatus) before and after the microchamber. Digitizing the analog output from these microtransducers required an A/D converter (ML785 PowerLab/8SP; ADInstruments) linked to a computer running CHART V7 software (ADInstruments). […] A fixed-stage intravital microscope (Leica) with a 63× objective and a monochromic camera (DFC 360 FX; Leica) were used to observe and record leukocyte rolling along immobilized adhesion molecules. Recordings lasted at least 30 s and incorporated ten different fields of view. Using ImageJ software, leukocyte rolling velocity was calculated based on individual cell displacement along the surface of the chamber over time (i.e., Δd/Δt). Flux was calculated as the mean number of leukocytes interacting with the chamber surface per field of view (i.e., average of 10 independent fields of view).
Autoperfused Microflow Chamber assay was used to assess the impact of 17,18-EEQ and 19,20-EDP on systemic leukocyte recruitment during CNV development. The rolling velocity of peripheral blood leukocytes (PBLs) in the circulating blood was measured 3 days post CNV induction, as this reflects the peak of immune cell infiltration in this model.

[4] = test system: E-selectin; test: Real-time PCR of E-selectin mRNA in laser-captured CNV lesions; format: in vivo, mouse; details: 50 μg/kg/day i.p., 7 days post CNV induction
Protocol: Immediately after enucleation, mouse eyes were placed in optimum cutting temperature (OCT) compound and swiftly frozen. Under RNase-free conditions, eyes were cryosectioned (10 μm thickness per section) and mounted on polyethylene naphthalate glass slides (Leica). After dehydrating with washes of 50, 75, and 100% ethanol, the slides were stained with isolectin B4 at a dilution of 1:50 in 1 mM CaCl2. Laser-capture microdissection (Leica LMD 7000 system) was used to isolate chorioretinal vessels in CNV lesions, which were then placed in RNA-stabilizing buffer (RNeasy Micro Kit; Qiagen). […] Real-time PCR was conducted on a StepOne real-time PCR System (Applied Biosystems) with mouse TaqMan expression assays for the following genes (Applied Biosystems): E-selectin (Mm00441278_m1), kam-1 (Mm00516023_m1), and β-actin (Mm00607939_s1). All data were normalized to β-actin cDNA.

[5] = physchem
[6] = molecular target: T1, Rat sEH (Rattus norvegicus, UniProt P80299); test: sEH inhibition (IC50), fluorescent substrate CMNPC; format: biochemical; details: CMNPC as a substrate; ureas found in Brassicales
T1 sequence (P80299 1-554): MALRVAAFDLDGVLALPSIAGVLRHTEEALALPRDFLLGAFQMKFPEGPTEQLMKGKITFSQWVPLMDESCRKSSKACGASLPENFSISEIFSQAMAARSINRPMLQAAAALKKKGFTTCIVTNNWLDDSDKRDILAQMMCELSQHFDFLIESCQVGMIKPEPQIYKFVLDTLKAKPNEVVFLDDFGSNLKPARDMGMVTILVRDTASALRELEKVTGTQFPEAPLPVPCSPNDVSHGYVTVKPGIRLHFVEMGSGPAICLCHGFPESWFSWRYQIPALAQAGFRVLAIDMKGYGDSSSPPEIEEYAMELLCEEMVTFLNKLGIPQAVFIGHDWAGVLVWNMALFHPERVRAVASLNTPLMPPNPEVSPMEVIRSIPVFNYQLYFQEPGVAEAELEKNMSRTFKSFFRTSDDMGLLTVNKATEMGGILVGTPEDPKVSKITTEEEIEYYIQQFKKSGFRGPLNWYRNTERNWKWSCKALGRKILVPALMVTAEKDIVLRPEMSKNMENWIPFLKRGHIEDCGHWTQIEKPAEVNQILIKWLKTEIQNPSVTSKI

[7] = Solubility in sodium phosphate buffer (pH7.4); format: physicochemical; details: pH 7.4, aqueous buffer, Mean ± SD (n = 3)
[8] = molecular target: T2, Human sEH (Homo sapiens, UniProt P34913); test: sEH inhibition (IC50), fluorescent substrate CMNPC; format: biochemical; details: CMNPC as a substrate; ureas found in Brassicales
T2 sequence (P34913 1-555): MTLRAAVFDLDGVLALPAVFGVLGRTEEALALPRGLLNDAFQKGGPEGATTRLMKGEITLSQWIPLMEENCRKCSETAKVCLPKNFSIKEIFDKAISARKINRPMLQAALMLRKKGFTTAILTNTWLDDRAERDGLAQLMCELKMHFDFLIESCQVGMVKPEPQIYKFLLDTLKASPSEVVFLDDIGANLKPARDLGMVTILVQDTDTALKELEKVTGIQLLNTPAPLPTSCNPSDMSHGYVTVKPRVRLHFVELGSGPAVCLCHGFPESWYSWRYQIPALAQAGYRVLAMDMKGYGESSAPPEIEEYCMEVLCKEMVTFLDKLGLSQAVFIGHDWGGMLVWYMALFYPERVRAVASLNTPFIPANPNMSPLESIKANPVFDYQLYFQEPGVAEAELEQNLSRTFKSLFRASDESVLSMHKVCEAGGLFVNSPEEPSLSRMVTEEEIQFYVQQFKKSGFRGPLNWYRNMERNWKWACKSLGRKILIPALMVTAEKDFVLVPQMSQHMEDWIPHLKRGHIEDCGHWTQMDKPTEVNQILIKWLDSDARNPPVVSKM

[9] = sodium phosphate buffer (pH7.4); data from Kitamura et al., (2015); cited from earlier work
[10] = C57BL/6 mice, 7 d after CNV induction
[11] = C57BL/6 mice, 50 μg/kg/day i.p. once a day, 7 d after CNV induction

SMILES: CCCCC/C=C\C/C=C\CC1OC1C/C=C\CCCC(=O)O (centres unmarked) [8,9-EET, reference compound]
- CNV size or severity compared to base line controls [2, 10]: do not affect
- rolling velocity of PBLs ([3]; PBS 2.30±0.13): 1.14±0.15 μm/s

SMILES: CCCCC/C=C\C[C@H]1O[C@H]1C/C=C\C/C=C\CCCC(=O)O [11,12-EET]
- mRNA level of E-selectin in CNV lesions compared to PBS injected controls [4]: significant increase
- CNV size or severity compared to base line controls [2, 10]: do not affect
- rolling velocity of PBLs ([3]; PBS 2.30±0.13): 1.41±0.45 μm/s

SMILES: CCCCCC1OC1C/C=C\C/C=C\C/C=C\CCCC(=O)O (centres unmarked) [14,15-EET, reference compound]
- CNV size or severity compared to base line controls [2, 10]: do not affect
- rolling velocity of PBLs ([3]; PBS 2.30±0.13): 1.41±0.11 μm/s

SMILES: CCC1OC1C/C=C\C/C=C\C/C=C\C/C=C\CCCC(=O)O (centres unmarked) [17,18-EEQ, 17,18-epoxyeicosatetraenoic acid]
- rolling velocity of PBLs ([3]; PBS 0.94±0.06): 1.48±0.16 μm/s

SMILES: CCC1OC1C/C=C\C/C=C\C/C=C\C/C=C\C/C=C\CCC(=O)O (centres unmarked) [19,20-EDP]
- rolling velocity of PBLs ([3]; PBS 0.94±0.06): 1.44±0.12 μm/s

SMILES: COc1ccc(CNC(=O)NCc2ccccc2)cc1 [BMU]
- IC50 [6]: 0.182 µM
- solubility [7]: 9 ± 4 µM (≈ 2.43 µg/mL)

SMILES: O=C(NCc1ccccc1)NCc1ccccc1 [Compound 1]
- IC50 [6]: 0.385 µM
- solubility [7]: 43 ± 5 µM (≈ 10.3 µg/mL)

SMILES: COc1cccc(CNC(=O)NCc2ccccc2)c1 [Compound 2]
- IC50 [8]: 0.534 µM
- IC50 [6]: 0.308 µM
- solubility [7]: 77 ± 9 µM (≈ 20.8 µg/mL)

SMILES: CNC(=O)C(=O)NCCCC/C=C\CCCCCCCCCC(=O)O [Compound C21, (Z)-16-(2-(methylamino)-2-oxoacetamido)hexadec-11-enoic acid]
- CNV attenuation compared to EEQ administered alone ([2]; C21 intraperitoneally once a day for 7 days, FIGS. 20A-20C): did not show a significant difference
- CNV size in choroidal flat mounts compared to control vehicle [2, 11]: significantly reduced
- CNV size in cross-sectional SD-OCT compared to control vehicle [2, 11]: significantly reduced
- vascular leakage in CNV lesions (fluorescein angiography) compared to control vehicle [2, 11]: significantly reduced

More lines, main results first:

- Formulation (mg/mL) EtOH [1]: 20 mg/mL
- Formulation (mg/mL) PEG400 [1]: 20 mg/mL
- Formulation (mg/mL) Trioleate [1]: 0.625 mg/mL
SMILES: O=C(Nc1ccc(C(F)(F)F)cc1)NC1CCC(Oc2ccc(C(=O)O)cc2)CC1 (centres unmarked)

- Formulation (mg/mL) EtOH [1]: 20 mg/mL
- Formulation (mg/mL) PEG400 [1]: 20 mg/mL
- Formulation (mg/mL) Trioleate [1]: 0.625 mg/mL
SMILES: CC(C)C(=O)N1CCC(NC(=O)Nc2ccc(C(F)(F)F)cc2)CC1

- Formulation (mg/mL) EtOH [1]: 13 mg/mL
- Formulation (mg/mL) PEG400 [1]: 13 mg/mL
- Formulation (mg/mL) Trioleate [1]: 1.25 mg/mL
SMILES: CCCCS(=O)(=O)N1CCC(NC(=O)Nc2ccc(C(F)(F)F)cc2)CC1

- logP [5]: 2.6
SMILES: CCOCCOCCOCCCCCNC(=O)NC12CC3CC(CC(C3)C1)C2 [AEPU]

- IC50 [8]: 0.222 µM
- IC50 [6]: 0.155 µM
- solubility [7]: 101 ± 37 µM (≈ 30.3 µg/mL)
SMILES: COc1cccc(CNC(=O)NCc2cccc(OC)c2)c1 [Compound 3]

- IC50 [6]: 0.218 µM
SMILES: COc1ccc(CNC(=O)NCc2ccc(OC)cc2)cc1 [MMU]
- Solubility (μM) [9]: 11 ± 2^c μM
